This is an account of results in PubChem BioAssay (NCI).

Test systems include SK-MEL-5 melanoma; MCF7 breast; 786-0 renal; SN12C renal; PC-3 prostate; A549 NSCLC; IGROV1 ovarian; MALME-3M melanoma; TK-10 renal; HT29 colon.
Assay in all cases: NCI-60 cell line screen, 48 h

Several values for one entry are separate records, joined by “and”; a condition that tells them apart may be missing. Identical values can stand only once.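 Five compound concentrations were applied to cells in 96-well plates for 48 hours; endpoints were derived by simple linear interpolation of the resulting dose-response curve. GI50 = concentration required for 50% inhibition of growth. Definition used: TGI = concentration required for complete inhibition of growth.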

Regarding `COc1ccc(OC)c(NC(=O)c2cccc(NC3=C(Cl)C(=O)N(Cc4ccccc4)C3=O)c2)c1`, the GI50 is 26.6 µM in the experiment with SK-MEL-5 melanoma; over 48.2 µM in the experiment on MCF7 breast; over 96.2 µM in the experiment with 786-0 renal; over 58.1 µM in the experiment on SN12C renal; 38.2 µM in the experiment with PC-3 prostate; over 100 µM in the experiment with A549 NSCLC. In addition, the GI50 with IGROV1 ovarian is over 100 µM; with MALME-3M melanoma, over 49.3 µM; in the experiment on TK-10 renal, over 59.5 µM; with HT29 colon, over 100 µM. Also, the TGI is 87.7 µM in the experiment on SK-MEL-5 melanoma; over 100 µM in the experiment with MCF7 breast; over 100 µM in the experiment on 786-0 renal; over 100 µM in the experiment on SN12C renal; over 100 µM with PC-3 prostate; over 100 µM with A549 NSCLC. Further, the TGI in the experiment with IGROV1 ovarian was over 100 µM; in the experiment with MALME-3M melanoma, over 86.4 µM; in the experiment on TK-10 renal, over 100 µM; with HT29 colon, over 100 µM.

In the case of `CC(CN1CC(=O)NC(=O)C1)N1CC(=O)NC(=O)C1` (centres undefined), the TGI in the experiment with SK-MEL-5 melanoma, in the experiment with MCF7 breast, in the experiment with 786-0 renal, in the experiment with SN12C renal, in the experiment with PC-3 prostate and in the experiment with A549 NSCLC was over 750 µM each time. In addition, the TGI in the experiment with IGROV1 ovarian was over 725 µM; in the experiment on MALME-3M melanoma it was 355 µM; in the experiment with TK-10 renal, over 702 µM; in the experiment with HT29 colon, over 687 µM.

In the case of `Cc1cc(C(=O)Nc2cc(Oc3ccc4nc(NC(=O)C5CC5)cn4n3)ccc2C)n(C)n1`, the GI50 was over 10 µM in the experiment with SK-MEL-5 melanoma; 6.41 µM in the experiment with MCF7 breast; over 10 µM in the experiment on 786-0 renal; over 10 µM in the experiment with SN12C renal; over 10 µM with PC-3 prostate; over 10 µM in the experiment on A549 NSCLC. Also, the GI50 is 5.06 µM in the experiment with IGROV1 ovarian, over 10 µM with MALME-3M melanoma, over 10 µM in the experiment on TK-10 renal and over 10 µM in the experiment with HT29 colon. The TGI in the experiment with SK-MEL-5 melanoma, in the experiment with MCF7 breast, in the experiment on 786-0 renal, in the experiment on SN12C renal, with PC-3 prostate and in the experiment on A549 NSCLC was over 10 µM throughout. In addition, the TGI in the experiment on IGROV1 ovarian, in the experiment with MALME-3M melanoma, in the experiment with TK-10 renal and in the experiment with HT29 colon was over 10 µM throughout.

With `CCCCC[C@H]1CC=C2C(=O)C=C[C@@H]2CC=CCCCC(=O)O[C@@H](CCCCC)CC=C2C(=O)C=C[C@@H]2CC=CCCCC(=O)O[C@@H](CCCCC)CC=C2C(=O)C=C[C@@H]2CC=CCCCC(=O)O1`, the GI50 was 0.737 µM in the experiment with SK-MEL-5 melanoma; 0.286 µM with MCF7 breast; 0.325 µM with 786-0 renal; 0.277 µM in the experiment on SN12C renal; 0.342 µM in the experiment on PC-3 prostate; 0.529 µM in the experiment with A549 NSCLC. Also, the GI50 is 0.279 µM in the experiment with IGROV1 ovarian, 0.295 µM in the experiment with MALME-3M melanoma, 0.478 µM in the experiment on TK-10 renal and 0.313 µM in the experiment with HT29 colon. Moreover, the TGI in the experiment on SK-MEL-5 melanoma was 1.87 µM; in the experiment with MCF7 breast, 2.2 µM; in the experiment on 786-0 renal, 1.43 µM; in the experiment with SN12C renal, over 8.75 µM; in the experiment on PC-3 prostate, 1.5 µM; with A549 NSCLC, 2.12 µM. Further, the TGI in the experiment on IGROV1 ovarian is 1.57 µM; in the experiment on MALME-3M melanoma, over 8.75 µM; in the experiment with TK-10 renal it was 3.53 µM; with HT29 colon, 1.21 µM.

Turning to `CCN(CC)CCC(=O)OC1C(C)=CC(C)C(=O)CC(C(C)CC2CCC(O)C(OC)C2)OC(=O)C2CCCCN2C(=O)C(=O)[C@@]2(O)OC(CCC2C)CC(OC)\C(C)=C/C=C/C=C/C(C)CC(C)C(=O)C1OC` (some centres undefined), the TGI stood at 17.2 µM in the experiment on SK-MEL-5 melanoma; 16.1 µM in the experiment with MCF7 breast; 22.4 µM in the experiment on 786-0 renal; 21.1 µM in the experiment on SN12C renal; 22.4 µM with PC-3 prostate; 16.6 µM in the experiment on A549 NSCLC. For the same compound, the TGI with IGROV1 ovarian was determined as 14.7 µM; with MALME-3M melanoma it was 18.8 µM; in the experiment with TK-10 renal it was 23.2 µM; with HT29 colon it was 19.9 µM.

In the case of `CCOc1cc(C(=O)O)c2c(ccc3ccc(OC)c(OC)c32)c1OC`, the TGI in the experiment with SK-MEL-5 melanoma, in the experiment with MCF7 breast, in the experiment on 786-0 renal, in the experiment on SN12C renal, in the experiment on PC-3 prostate and with A549 NSCLC was over 100 µM each time. Further, the TGI with IGROV1 ovarian, with MALME-3M melanoma, in the experiment on TK-10 renal and in the experiment with HT29 colon was over 100 µM throughout.

For the compound `O=C1NC(O)c2ccccc2O1` (centres undefined), the TGI in the experiment on SK-MEL-5 melanoma, with MCF7 breast, in the experiment with 786-0 renal, in the experiment on SN12C renal, in the experiment with PC-3 prostate and in the experiment with A549 NSCLC was over 100 µM throughout. The TGI in the experiment with IGROV1 ovarian, in the experiment with MALME-3M melanoma, in the experiment with TK-10 renal and in the experiment with HT29 colon was over 100 µM in each case.

Regarding `COc1cc(OC)c(/C=C/C(=O)c2ccc(Nc3ncnc4ccccc34)cc2)c(OC)c1`, the GI50 with SK-MEL-5 melanoma is 0.426 µM; with MCF7 breast, 0.449 µM; with 786-0 renal, 1.47 µM; with SN12C renal it was 1.66 µM; in the experiment with PC-3 prostate, 0.707 µM; in the experiment with A549 NSCLC, 0.665 µM. Also, the GI50 in the experiment with IGROV1 ovarian was 1.93 µM; in the experiment on MALME-3M melanoma, 0.799 µM; with TK-10 renal it was 1.54 µM; in the experiment on HT29 colon it was 0.364 µM. Further, the TGI came to 1.98 µM in the experiment with SK-MEL-5 melanoma; 2.59 µM with MCF7 breast; 3.55 µM in the experiment on 786-0 renal; 10 µM with SN12C renal; 8.33 µM in the experiment on PC-3 prostate; 3.76 µM in the experiment on A549 NSCLC. Besides, the TGI in the experiment with IGROV1 ovarian worked out at 20.3 µM; with MALME-3M melanoma it was 2.65 µM; with TK-10 renal it was 3.68 µM; in the experiment on HT29 colon it was 1.39 µM.

Regarding `COC1CC(C)C(OC)c2cc(O)cc(c2O)NC(=O)/C(C)=C/C=C\C(C)C(OC(N)=O)/C(C)=C\C(C)C1OC` (centres undefined), the GI50 is 0.691 µM and 0.599 µM in the experiment on SK-MEL-5 melanoma; 0.0482 µM in the experiment with MCF7 breast; 4.62 µM with 786-0 renal; 0.201 µM and 0.44 µM with PC-3 prostate; 0.435 µM and 1.84 µM in the experiment with A549 NSCLC; 0.273 µM and 0.506 µM in the experiment with IGROV1 ovarian. The GI50 with MALME-3M melanoma is 0.749 µM and 0.503 µM; with TK-10 renal it was 2.92 µM; in the experiment with HT29 colon, 0.0526 µM and 0.116 µM. Further, the TGI in the experiment with SK-MEL-5 melanoma is 18.1 µM and 5.29 µM; with MCF7 breast, 10.5 µM; with 786-0 renal it was 11.5 µM and 24.3 µM; in the experiment on SN12C renal, 15.1 µM and 8.7 µM; in the experiment with PC-3 prostate, 16.4 µM and 8.51 µM; in the experiment on A549 NSCLC, 27.6 µM and 21.1 µM. The TGI was 15.9 µM and 8 µM in the experiment on IGROV1 ovarian; 4.89 µM and 7.39 µM in the experiment with MALME-3M melanoma; 21.1 µM and 10.6 µM with TK-10 renal; 12.2 µM and 10.3 µM with HT29 colon.
